Legend:
[1] = system: production of leukotriene B4 (LTB4) in isolated rat polymorphonuclear leukocytes (PMN); assay: inhibition of LTB4 production in isolated rat polymorphonuclear leukocytes (Rat PMN); format: cell-based, rat (male Sprague Dawley); settings: Leukocyte, 5 min, LTB4 by RIA, A23187 10 μM, 37° C., read-out: Polymorphonuclear Leucocyte (PMN) Activity, Rat PMN IC50
Method: (§1) The assay is conducted as follows:
B. Rat Peritoneal Polymorphonuclear leukocytes (PMN). Male Sprague Dawley rats were purchased from Taconic Farms, Germantown, NY. The animals were maintained on standard pellet diet and water ad lib. Elicited PMN were prepared from peritoneal exudates as follows: 8 ml of 12% sodium caseinate was injected intraperitoneally into male rats. After 18-20 hours, the rats were killed with CO2 and the peritoneal cavities were lavaged with Eagle's MEM (pH 7.7) without NaHCO3 but containing Earle's salts, L-glutamine, and 30 mM HEPES. The PMN were isolated by centrifugation, washed with MEM, filtered through lens paper to remove clumps, and adjusted to a concentration of 1×10^7 cells/ml.
(§2) C. Generation and Radiommumoassay of LTB4. PMNs (0.5 mL; 2.5×10^5 cells) are placed in plastic tubes and incubated (37° C., 2 min) with test compounds at the desired concentration or vehicle control (DMSO, final concentration 0.2%). The synthesis of LTB4 is initiated by the addition of calcium inophore A23187 (final concentration 10 μM) or vehicle on control samples and allowed to proceed for 5 minutes at 37° C. The reactions are then terminated by the addition of cold methanol (0.25 mL) and samples of the entire PMN reaction mixture are removed for radiommunoassay of LTB4.
(§3) Samples (50 μl ) of authentic LTB4 of known concentration in radiommunoassay buffer (RIA) buffer (potassium phosphate 1 mM; disodium EDTA 0.1 mM; Thimerosal 0.025 mM; gelatin 0.1%, pH 7.3) or PMN reaction mixture diluted 1:1 with RIA buffer are added to reaction tubes.
(§4) Thereafter [3H]-LTB4 (10 nCu in 100 μl RIA buffer) and LTB4 antiserum (100 μL of a 1:3000 dilution in RIA buffer) are added and the tubes vortexed. Reactants are allowed to equilibrate by incubation overnight at 4° C. To separate antibody-bound from free LTB4, aliquots (50 μL) of activated charcoal (3% activated charcoal in RIA buffer containing 0.25% Dextran T-70) were added, the tubes vortexed, and allowed to stand at room temperature for 10 minutes prior to centrifugation (1500×g; 10 min; 4° C). The supernatents containing antibody-bound LTB4 are decanted into vials and Aquasol 2 (4 mL) was added. Radioactivity is quantified by liquid scintillation spectrometry. […] The specificity of the antiserium and the sensitivity of the procedure have been described in detail elsewhere. (Rokach, J.; Hayes, E. C.; Griard, Y.; Lombardo. D. L.; Maycock, A. L.; Rosenthal, A. S.; Young, R. N.; Zamboni, R.; Zweerink, H. J. Prostaglandins Leukotrienes and Medicine 1984, 13, 21). The amount of LTB4 produced in test and control approx. 20ng/10^6cells) samples are then calculated. Inhibitory dose response curves are constructed using a four parameter algorithm and from these the IC50 values are determined.

[2] = system: production of leukotriene B4 (LTB4) in isolated human polymorphonuclear leukocytes (PMN); assay: inhibition of LTB4 production in isolated human polymorphonuclear leukocytes (Human PMN); format: cell-based; settings: Leukocyte, 5 min, LTB4 by RIA, A23187 10 μM, 37° C., read-out: Polymorphonuclear Leucocyte (PMN) Activity, Human PMN IC50
Method: as §1
A. Preparation of Human PMN. Human blood is obtained by antecubital venepuncture from consenting volunteers who denied having taken medication within the previous 7 days. The blood is immediately added to 10% (v/v) trisodium citrate (0.13 M) or 5% (v/v) sodium heparin (1000 IU/mL). PMNs are isolated from anticoagulated blood by dextran sedimentation and centrifugation through Ficoll Hypaque (specific gravity 1.077), essentially as described by Boyum. (Boyum, A., Scand. J. Clin. Lab. Invest. 1968, 21 (Supp 97), 77). Contaminating erthrocytes are removed by lysis following exposure to ammonium chloride (0.16 M) in Tris buffer (pH 7.65), and the PMNs resuspended at 5×10^5 cells/mL in HEPES (15 mM) buffered Hanks balanced salt solution containing Ca^2+ (1.4 mM) and Mg^2+ (0.7 mM), pH 7.4. Viability is assessed by Trypan blue exclusion and is typically greater than 98%.
as §2, §3
as §4, with “(Rokach, J.; Hayes, E. C.; Griard, Y.; Lombardo. D. L.; Maycock, A. L.; Rosenthal, A. S.; Young, R. N.; Zamboni, R.; Zweerink, H. J. Prostaglandins Leukotrienes and Medicine 1984, 13, 21).” left out

[3] = system: leukotriene biosynthesis in human polymorphonuclear leukocytes; settings: known inhibitors of leukotriene biosynthesis; cited from earlier work
[4] = system: production of leukotriene B4 (LTB4) in polymorphonuclear leukocytes (PMN); assay: LTB4 inhibition in the above described in vitro test (PMN, species not stated); format: cell-based; settings: Leukocyte, standard compounds

Structure (SMILES) | IC50 [1] [nM] | IC50 [2] [nM] | activity in human polymorphonuclear leukocytes assay [3] | IC50 [4] [nM]
CC(C)(C)c1cc2c(cc1O)CCS2 [R4 = H, R6 = --C4 H10, 6-t-butyl-2,3-dihydro-5-hydroxybenzothiophene] | 207 | 142 |  | 
O=C1CCN(c2ccccc2)N1 [phenidone] |  |  | active in this assay | 9250
CCCc1cc2c(cc1O)CCS2 [R4 = H, R6 = --C3 H8, 6-propyl-2,3-dihydro-5-hydroxybenzothiophene] | 211 | 326 |  | 
CC(Cc1ccc(O)c(O)c1)C(C)Cc1ccc(O)c(O)c1 (stereo not shown) [nordihydroguaiacetic acid, nordihydroguaiaretic acid] |  |  | active in this assay | 86
C=CCc1cc2c(cc1O)CCS2 [R4 = H, R6 = --CH2 CH= CH2, 6-Allyl-5-hydroxy-2,3-dihydrobenzothiophene] | 190 | 319 |  | 
C=CCc1c(O)ccc2c1CCS2 [R4 = --CH2 CH= CH2, R6 = H, 4-(propen-3-yl)-5-hydroxy-2,3-dihydrobenzothiophene] | 887 | 2260 |  | 
Oc1ccc2c(c1)CCS2 [R4 = H, R6 = H, 5-Hydroxy-2,3-dihydrobenzothiophene] | 5230 |  |  | 

— patent publication US4963580A, “Substituted 5-hydroxy-2,3-dihydrobenzothiophenes as inhibitors of leukotriene biosynthesis” (Merck & Co., Inc., priority 1989, dated 1990)
